Assay results: paper PMC4667271, “Discovery of a Novel Inhibitor of the Protein Tyrosine Phosphatase Shp2” (Scientific Reports, 2015)

Assays:
TCPTP = TCPTP (Homo sapiens, UniProt P17706); experiment: in vitro PTP assay (pNPP), TCPTP; format: biochemical
Protocol: (§1) Plasmids for expression of His-tag fusion proteins of human PTP were constructed in PET-28a by PCR subcloning techniques. The constructions contain only the PTP domain except Full-length Shp2. Full-length Shp2 containing Tyr279-to-Ala mutant was generated by PCR-based mutagenesis. All constructs were verified by DNA sequencing. PTP-His fusion proteins were expressed in Escherichia coli BL21 and lysed in the buffer (50 mM NaH2PO4, 300 mM NaCl, 250 mM imidazole, 1 mM dithiothreitol plus 5% glycerol), purified with Ni-NTA Magnetic Agarose Beads (Qiagen). The His-tag recombinant purification protocol was carried out according to the purification under native conditions of the QIAexpress System.
(§2) The assay was set in wells of 96-well plate with a final volume of 100 μl of reaction mixture containing 10 mM of NaAc-HAc, 1 mM of ethylene diamine tetraacetic acid, 1 mM of DL-dithiothreitol and 2% of dimethyl sulfoxide, pH 5.5. Activity of the enzyme was assayed by incubating recombinant PTP protein or mutant PTP with various concentrations of Fumos in the mixture at 37 °C for 30 min. Absorbance at 405 nm was detected immediately after addition of varied concentrations of substrate, p-nitrophenyl phosphate (pNPP) to each corresponding well.

SHP1 = SHP1 (Homo sapiens, UniProt P29350); experiment: in vitro PTP assay (pNPP), SHP1; format: biochemical
SHP1, sequence (P29350 244-515 limits assumed): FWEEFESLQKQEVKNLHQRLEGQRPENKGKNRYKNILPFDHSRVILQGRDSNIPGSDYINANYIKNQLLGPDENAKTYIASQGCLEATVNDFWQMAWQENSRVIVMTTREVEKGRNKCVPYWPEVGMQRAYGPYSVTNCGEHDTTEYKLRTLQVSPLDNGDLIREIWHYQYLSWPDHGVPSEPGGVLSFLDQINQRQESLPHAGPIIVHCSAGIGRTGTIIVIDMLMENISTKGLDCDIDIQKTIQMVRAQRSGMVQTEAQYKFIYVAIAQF
Protocol: as §1, §2

HePTP = HePTP (Homo sapiens, UniProt P35236); experiment: in vitro PTP assay (pNPP), HePTP; format: biochemical
HePTP, sequence (P35236 97-350 limits assumed): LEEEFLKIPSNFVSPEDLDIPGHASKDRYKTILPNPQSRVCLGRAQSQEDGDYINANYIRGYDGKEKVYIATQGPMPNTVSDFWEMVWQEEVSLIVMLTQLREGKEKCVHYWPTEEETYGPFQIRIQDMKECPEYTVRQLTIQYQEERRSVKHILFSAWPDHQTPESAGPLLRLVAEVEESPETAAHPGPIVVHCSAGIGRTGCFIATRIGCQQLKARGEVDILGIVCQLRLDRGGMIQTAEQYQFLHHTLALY
Protocol: as §1, §2

Meg2 = Meg2 (Homo sapiens, UniProt P43378); experiment: in vitro PTP assay (pNPP), Meg2; format: biochemical
Meg2, sequence (P43378 303-574 limits assumed): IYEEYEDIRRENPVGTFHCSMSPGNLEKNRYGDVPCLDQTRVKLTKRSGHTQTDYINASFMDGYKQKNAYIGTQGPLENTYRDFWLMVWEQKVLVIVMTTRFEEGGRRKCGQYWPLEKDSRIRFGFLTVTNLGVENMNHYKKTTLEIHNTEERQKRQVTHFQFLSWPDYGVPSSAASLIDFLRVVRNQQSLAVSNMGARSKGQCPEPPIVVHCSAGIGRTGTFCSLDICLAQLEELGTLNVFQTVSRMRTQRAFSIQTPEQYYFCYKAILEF
Protocol: as §1, §2

Shp2 = biological target: T1, Shp2 (Homo sapiens, UniProt Q06124); experiment: Irreversibility assessment (dilution and excess substrate); format: biochemical; conditions: preincubated 30 min, then 40-fold substrate
T1 sequence (Q06124 1-593): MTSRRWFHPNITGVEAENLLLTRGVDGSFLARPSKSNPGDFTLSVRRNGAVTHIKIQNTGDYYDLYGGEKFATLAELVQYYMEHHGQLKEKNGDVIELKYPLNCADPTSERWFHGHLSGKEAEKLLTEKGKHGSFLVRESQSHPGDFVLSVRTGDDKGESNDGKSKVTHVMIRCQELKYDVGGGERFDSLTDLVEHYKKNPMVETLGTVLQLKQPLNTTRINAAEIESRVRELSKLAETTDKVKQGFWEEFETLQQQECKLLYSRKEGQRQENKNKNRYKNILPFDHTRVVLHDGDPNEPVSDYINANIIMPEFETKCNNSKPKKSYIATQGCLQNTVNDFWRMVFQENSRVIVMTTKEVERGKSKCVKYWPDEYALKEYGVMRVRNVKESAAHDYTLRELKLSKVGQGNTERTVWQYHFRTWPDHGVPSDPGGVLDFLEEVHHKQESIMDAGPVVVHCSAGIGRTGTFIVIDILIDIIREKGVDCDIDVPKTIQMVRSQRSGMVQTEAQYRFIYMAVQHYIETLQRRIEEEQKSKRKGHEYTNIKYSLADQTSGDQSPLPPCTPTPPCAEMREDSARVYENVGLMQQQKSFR
Protocol: Recombinant Shp2 was mixed with the inhibitor at a final concentration of 100-fold IC50 or with vehicle control (DMSO) respectively. Sodium orthovanadate was used as a positive control compound. After incubation at room temperature for 30 min, the Enzyme-inhibitor was diluted to one-fold and mixed with 40-fold pNPP ([…]) for enzymatic activity.

[1] = tested on: ERK1/2 phosphorylation in HeLa cells; experiment: EGF-induced ERK1/2 activation, Western blot, HeLa; format: cell-based, human; conditions: 10-40 μM for 24 h, EGF 20 ng/ml 5 min
Excerpt: (§3) After centrifugation, the supernatant was collected.

[2] = tested on: ERK1/2 phosphorylation in HEK293T cells; experiment: EGF-induced ERK1/2 activation, Western blot, HEK293T; format: cell-based, human; conditions: 10-40 μM for 24 h, EGF 20 ng/ml 5 min
Excerpt: as §3

[3] = tested on: ERK1/2 phosphorylation in MDA-MB-231 cells; experiment: EGF-induced ERK1/2 activation, Western blot, MDA-MB-231; format: cell-based, human; conditions: MDA-MB-231 (K-Ras G13D); 10-40 μM for 24 h, EGF 20 ng/ml 5 min
Excerpt: as §3

[4] = tested on: EGF-induced Ras activation in HEK293T cells; experiment: Ras activation assay (GST-RBD pull-down), HEK293T; format: cell-based, human; conditions: Fumos 20 μM
Protocol: Active Ras was detected by use of the RBD of raf-1 fused to glutathione S-transferase (GST) as described previously. Cells were lysed in MLB buffer (25 mM Hepes, 150 mM NaCl, 1% Nonidet P-40, 0.25% sodium deoxycholate, 10% glycerol, 25 mM NaF, 1 mM Na3VO4, 10 mM MgCl2, 1 mM EDTA, pH 7.5) supplemented with complete EDTA-free protease inhibitor mixture. Total 500 μg cell lysate was incubated with 10–20 μg of GST-RBD bound beads(Merck) overnight at 4 °C. The beads were pelleted by centrifugation and washed three times with MLB buffer. The beads were boiled in SDS loading buffer and subjected to electrophoresis, followed by immunoblotting with an anti-Ras antibody (Santa Cruz Biotechnology).

HeLa cells = experiment: Transwell invasion assay, HeLa; format: cell-based, human; conditions: 4 and 14 μM, 24 h, EGF in lower chamber
Protocol: The invasion assay was performed in Transwell chambers according to Corning methods. Briefly, the upper chamber of a Transwell insert ([…] pore size) was coated with 40 μl 1:6 mixture of Matrigel (BD Biosciences, Bedford): Opti-MEM (Invitrogen) for MDA-MB-231 and 40 μl 1:12 mixture of Matrigel: Opti-MEM (Invitrogen) for HeLa cells and dried for 2 h at 37 °C. The lower chamber was filled with serum-free media containing 10 ng/ml EGF. Cells were seeded into upper chamber at a density 5 × 10^4 cells/ml per well in serum-free media. Cells were treated with series concentrations of Fumos for 24 h. The top aspect of the membrane was gently swabbed the inside of each insert using cotton swabs, and cells that invaded on the lower surface of the membrane were fixed using methanol and stained with crystal violet (Beyotime Institute of Biotechnology). Random fields were counted and photographed by microscope (Olympus).

TCPTP, sequence (P17706 5-275 limits assumed): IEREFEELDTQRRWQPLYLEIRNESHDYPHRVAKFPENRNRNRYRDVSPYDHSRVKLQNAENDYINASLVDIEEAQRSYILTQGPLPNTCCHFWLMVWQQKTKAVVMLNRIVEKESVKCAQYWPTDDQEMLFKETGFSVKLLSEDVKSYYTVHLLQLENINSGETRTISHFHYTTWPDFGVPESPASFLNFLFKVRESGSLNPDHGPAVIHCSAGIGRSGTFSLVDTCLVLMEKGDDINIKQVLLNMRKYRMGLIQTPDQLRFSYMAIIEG

CC[C@@H](C)C[C@@H](C)/C=C(C)/C=C/C=C/C=C(\C)C(=O)c1c(O)c(-c2ccc(O)cc2)cn(O)c1=O [Fumos, Fumosorinone]
IC50 (TCPTP; TCPTP PTP domain): 29.7 ± 0.42 µM | IC50 selective (TCPTP; TCPTP relative to Shp2 PTP domain): ~5 | IC50 (SHP1; SHP1 PTP domain): 34.7 ± 0.37 µM | IC50 selective (SHP1; SHP1 relative to Shp2 PTP domain): ~6 | IC50 (HePTP; HePTP PTP domain): > 100 µM | IC50 selective (HePTP; HePTP relative to Shp2 PTP domain): >16 | IC50 (Meg2; Meg2 PTP domain): > 100 µM | IC50 selective (Meg2; Meg2 relative to Shp2 PTP domain): >16 | recovery of Shp2 enzyme activity after dilution and excess substrate (reversibility) (Shp2): recovered | EGF-induced ERK1/2 phosphorylation [1]: drastically decreased | EGF-induced ERK1/2 phosphorylation [2]: drastically decreased | EGF-induced ERK1/2 phosphorylation [3]: the decrease was not observed | EGF-induced endogenous Ras activation [4]: inhibited | cell invasion (Transwell) (HeLa cells): significantly inhibited
